Measurements reported in PubChem BioAssay AID1963830 (Molecular Pharmacology Branch, DTP, NCI, 2024).

System: 922993-354-T-J3-PDC complex spheroid viability
Experiment: Anticancer human tumor 922993-354-T-J3-PDC patient-derived endometrial carcinoma cell line growth inhibition [POLQ]
Details: for IC50: curve of first compound; for viability, T/C: stronger effect = lower value
Experimental: Multicellular complex tumor spheroid response to Polymerase (POL) inhibitors (novobiocin, ART-558, RP6685) in combination with a variety of drugs and investigational agents in selected tumor cell lines
The POL inhibitors (novobiocin, ART-558, and RP6685) were evaluated both individually and in combination with standard of care and investigational anticancer small molecules within a complex spheroid model of solid tumors. . Complex spheroids include a stromal component modeled by human endothelial cells (HUVEC) and fibroblasts modeled by human mesenchymal stem cells (MSCs). The concentration ranges selected for each drug and investigational agent were based upon clinically achievable concentrations if the clinical Cmax of the agent was known.
Compounds. The drugs and investigational agents: novobiocin (NSC847541), ART-558 (NSC835418), RP-6685 (NSC848927), peposertib (NSC802822), ceralasertib (NSC780249), elimusertib (NSC800525), camonsertib (NSC841442), AZD-1390 (NSC803789), olaparib (NSC753686), talazoparib (NSC767125), rucaparib (NSC756644), sotorasib (NSC818433), MRTX-1133 (NSC836407), SN-38 (NSC673596), topotecan (NSC609699), epotoside (NSC141540), doxorubicin (NSC123127), gemcitabine (NSC613327), 5-fluorouracil (NSC19893), paclitaxel (NSC125973), vemurafenib (NSC761431), MSA-2 (NSC828583), SN-011 (NSC837082), adavosertib (NSC754352), prexasertib (NSC758257), carboplatin (NSC241240) and oxaliplatin (NSC266046), were obtained from the National Cancer Institute (NCI) Developmental Therapeutics Program Chemical Repository (21). The FDA-approved anticancer drug set is available from the Developmental Therapeutics Program at https://dtp.cancer.gov/organization/dscb/obtaining/. […] The stock solutions were prepared in dimethyl sulfoxide (DMSO, Sigma-Aldrich, St. Louis, MO, cat. D2650), except for the platinum compounds which were prepared in saline (Quality Biological, Gaithersburg, MD, cat. 114-055-101), at 800-fold the tested concentration and stored at -70 degrees C prior to their use. All drugs and investigational agents were tested over a range starting from a high concentration at or near the clinical Cmax and decreasing in half-log increments. If the clinical Cmax for an agent had not been determined, the highest concentration tested was 10 microM, except for SN-38, which was tested at a high concentration of 1 microM.
Cell Culture. All cells were maintained in an incubator at 37 degrees C and 5% CO2 with 95% humidity. The PDC lines were cultured according to standard operating procedures established by the NCI PDMR (https://pdmr.cancer.gov). Table 3 of the manuscript, lists the cell lines along with the number of the three cell types plated to form the mct-spheroids and media for tumor cell growth. After thawing, all PDC lines, except 997537-175-T-J1-PDC and 415267-285-R-J2-PDC, were cultured in Matrigel-coated flasks prepared with a working solution of 1X Ham's F-12 nutrient mix, without supplementation (Thermo Fisher Scientific, cat. 11765054), 100 U/mL penicillin-streptomycin (Thermo Fisher Scientific, cat. 15140122), and 2.5% Matrigel (Corning Inc., Corning, NY, cat. 354248) for the first three passages. The two PDC lines 997537-175-T-J1-PDC and 415267-285-R-J2-PDC were cultured on uncoated flasks. The 857933-349-R-J2-PDC line was cultured in 6C/Colon 1B media containing advanced DMEM/F-12 (Thermo Fisher Scientific, cat. 12634028), 10 mM HEPES (Thermo Fisher Scientific, cat. 15630080), 1X GlutaMAX supplement (Thermo Fisher Scientific, cat. 35050061), 0.1 mg/mL primocin (InvivoGen, San Diego, CA, cat. ant-pm-2), 10% defined fetal bovine serum, heat inactivated (HyClone Laboratories Inc., Logan, UT, cat. SH30070.03HI), 50% L-WRN conditioned media (ATCC, cat. CRL-3276), 1.25 mM N-Acetyl-L-cysteine (Sigma-Aldrich, cat. A9165), 10 mM nicotinamide (Sigma-Aldrich, cat. N0636), 1X B-27 supplement (Thermo Fisher Scientific, cat. 17504044), 1X N-2 supplement (Thermo Fisher Scientific, cat. […]

[1] = second compound 0.0316 µM, first compound 0.0316 µM
[2] = second compound 0.0316 µM, first compound 0.1 µM
[3] = second compound 0.0316 µM, first compound 0.316 µM
[4] = second compound 0.0316 µM, first compound 1 µM
[5] = second compound 0.1 µM, first compound 0.0316 µM
[6] = second compound 0.1 µM, first compound 0.1 µM
[7] = second compound 0.1 µM, first compound 0.316 µM
[8] = second compound 0.1 µM, first compound 1 µM
[9] = second compound 0.316 µM, first compound 0.0316 µM
[10] = second compound 0.316 µM, first compound 0.1 µM
[11] = second compound 0.316 µM, first compound 0.316 µM
[12] = second compound 0.316 µM, first compound 1 µM
[13] = second compound 1 µM, first compound 0.0316 µM
[14] = second compound 1 µM, first compound 0.1 µM
[15] = second compound 1 µM, first compound 0.316 µM
[16] = second compound 1 µM, first compound 1 µM
[17] = second compound 3.16 µM, first compound 0.0316 µM
[18] = second compound 3.16 µM, first compound 0.1 µM
[19] = second compound 3.16 µM, first compound 0.316 µM
[20] = second compound 3.16 µM, first compound 1 µM
[21] = second compound 10 µM, first compound 0.0316 µM
[22] = second compound 10 µM, first compound 0.1 µM
[23] = second compound 10 µM, first compound 0.316 µM
[24] = second compound 10 µM, first compound 1 µM
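Further: spheroids exposed to the agents for one week.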
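Wherever viability, T/C is given: 100% = DMSO vehicle control wells.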

C#Cc1c(F)ccc2cc(O)cc(-c3ncc4c(N5CC6CCC(C5)N6)nc(OCC56CCCN5CC(F)C6)nc4c3F)c12 (centres undefined) + COC1C(OC(N)=O)C(O)C(Oc2ccc3c(O)c(NC(=O)c4ccc(O)c(CC=C(C)C)c4)c(=O)oc3c2C)OC1(C)C
IC50 (second compound 0.0316 µM): > 10 µM | IC50 (second compound 0.1 µM): > 10 µM | IC50 (second compound 0.316 µM): > 10 µM | IC50 (second compound 1 µM): > 10 µM | IC50 (second compound 3.16 µM): > 10 µM | IC50 (second compound 10 µM): > 10 µM | viability, T/C [1]: 100% | viability, T/C [2]: 97.4% | viability, T/C [3]: 90.5% | viability, T/C [4]: 101% | viability, T/C (second compound 0.0316 µM, first compound 3.16 µM): 98% | viability, T/C (second compound 0.0316 µM, first compound 10 µM): 79.5% | viability, T/C [5]: 105% | viability, T/C [6]: 101% | viability, T/C [7]: 98.8% | viability, T/C [8]: 90.3% | viability, T/C (second compound 0.1 µM, first compound 3.16 µM): 94.9% | viability, T/C (second compound 0.1 µM, first compound 10 µM): 90.4% | viability, T/C [9]: 105% | viability, T/C [10]: 98.4% | viability, T/C [11]: 104% | viability, T/C [12]: 87.2% | viability, T/C (second compound 0.316 µM, first compound 3.16 µM): 92.8% | viability, T/C (second compound 0.316 µM, first compound 10 µM): 90% | viability, T/C [13]: 96.9% | viability, T/C [14]: 98.8% | viability, T/C [15]: 94.9% | viability, T/C [16]: 94.2% | viability, T/C (second compound 1 µM, first compound 3.16 µM): 93% | viability, T/C (second compound 1 µM, first compound 10 µM): 86.9% | viability, T/C [17]: 96.9% | viability, T/C [18]: 90.3% | viability, T/C [19]: 98.3% | viability, T/C [20]: 81.7% | viability, T/C (second compound 3.16 µM, first compound 3.16 µM): 99.5% | viability, T/C (second compound 3.16 µM, first compound 10 µM): 74.9% | viability, T/C [21]: 81.8% | viability, T/C [22]: 86.2% | viability, T/C [23]: 90.4% | viability, T/C [24]: 89.5% | viability, T/C (second compound 10 µM, first compound 3.16 µM): 96.2% | viability, T/C (second compound 10 µM, first compound 10 µM): 72.1%

C=CCn1c(=O)c2cnc(Nc3ccc(N4CCN(C)CC4)cc3)nc2n1-c1cccc(C(C)(C)O)n1 + COC1C(OC(N)=O)C(O)C(Oc2ccc3c(O)c(NC(=O)c4ccc(O)c(CC=C(C)C)c4)c(=O)oc3c2C)OC1(C)C
IC50 (second compound 0.0316 µM): > 1 µM | IC50 (second compound 0.1 µM): > 1 µM | IC50 (second compound 0.316 µM): > 1 µM | IC50 (second compound 1 µM): > 1 µM | IC50 (second compound 3.16 µM): > 1 µM | IC50 (second compound 10 µM): > 1 µM | viability, T/C (second compound 0.0316 µM, first compound 0.00316 µM): 91.7% | viability, T/C (second compound 0.0316 µM, first compound 0.01 µM): 105% | viability, T/C [1]: 97.4% | viability, T/C [2]: 101% | viability, T/C [3]: 118% | viability, T/C [4]: 94.9% | viability, T/C (second compound 0.1 µM, first compound 0.00316 µM): 94% | viability, T/C (second compound 0.1 µM, first compound 0.01 µM): 96.3% | viability, T/C [5]: 101% | viability, T/C [6]: 102% | viability, T/C [7]: 106% | viability, T/C [8]: 103% | viability, T/C (second compound 0.316 µM, first compound 0.00316 µM): 101% | viability, T/C (second compound 0.316 µM, first compound 0.01 µM): 104% | viability, T/C [9]: 85% | viability, T/C [10]: 95.4% | viability, T/C [11]: 102% | viability, T/C [12]: 84.9% | viability, T/C (second compound 1 µM, first compound 0.00316 µM): 108% | viability, T/C (second compound 1 µM, first compound 0.01 µM): 95.7% | viability, T/C [13]: 88.9% | viability, T/C [14]: 96.2% | viability, T/C [15]: 100% | viability, T/C [16]: 93.4% | viability, T/C (second compound 3.16 µM, first compound 0.00316 µM): 94.4% | viability, T/C (second compound 3.16 µM, first compound 0.01 µM): 97.7% | viability, T/C [17]: 101% | viability, T/C [18]: 91.1% | viability, T/C [19]: 102% | viability, T/C [20]: 91.3% | viability, T/C (second compound 10 µM, first compound 0.00316 µM): 94.6% | viability, T/C (second compound 10 µM, first compound 0.01 µM): 69.8% | viability, T/C [21]: 78% | viability, T/C [22]: 88.8% | viability, T/C [23]: 106% | viability, T/C [24]: 81.2%
